The values below come from patent US20250263439A1, “HETERODIMERIC PEPTIDE REAGENTS AND METHODS” (REGENTS OF THE UNIVERSITY OF MICHIGAN, priority 2018, published 2025).

For data set [1], the system named is EGFR or ErbB2 in SKBr3 cells. The data set is described as follows: siRNA knockdown of EGFR or ErbB2 in SKBr3 cells, confocal binding. Format: cell-based, human. As for the experimental part: siRNA knockdown experiments were performed to further validate specific heterodimer binding to either EGFR or ErbB2 in vitro. Separate siRNA knockdown of either EGFR or ErbB2 expression in SkBr3 cells was carried out to validate specific peptide binding. ON-TARGET plus human EGFR siRNA (#L-003114-00-0005), ONTARGET plus human ErbB2 siRNA (#L-003126-00-0005) and ON-TARGET plus non-targeting pool (#D-001810-10-05) were used.
siRNA at 5 μM concentration in 5 μL was transfected into SKBr3 cells using DharmaFECT transfection reagents (Thermo Scientific). Briefly, cells were seeded in 6-well culture plates at 30% confluence in McCoy's 5 Å media supplemented with 10% FBS without antibiotics. The cells were transfected with siRNA at a final concentration of […] using oligofectamine (Thermo Scientific). Knockdown of either EGFR or ErbB2 was confirmed by Western blot.

Data set [2] can be described thus: Hydrophilicity of heterodimer. Format: physicochemical.
The test system of the next data set is OE33 xenograft tumors. The data set is described as follows: In vivo NIR fluorescence imaging of OE33 xenograft tumors (Cy5.5). Also noted: species or system nude mice. As for the experimental part:
Optical imaging was performed in nude mice bearing xenograft tumors in vivo to characterize pharmacokinetics and assess toxicity. All experimental procedures were performed in accordance with relevant guidelines and regulations of the University of Michigan, and all animal studies were conducted with approval by the University Committee on the Use and Care of Animals (UCUCA). Animals were housed per guidelines of the Unit for Laboratory Animal Medicine (ULAM).
Female athymic nude mice (002019 Foxn1, Jackson Laboratories) were obtained at 4-5 weeks of age, and were housed with four animals per cage and fed with sterilized pellet chow and water. Mice were anesthetized in an isoflurane chamber, and OE33 xenograft tumors were generated by subcutaneous injection of about 5×10^7 tumor cells suspended in […] of sterile PBS in the hind limb flank. Mice were studied at about 3-4 weeks post-inoculation when the tumor volume reached about 0.5-0.8 cm in size.
In vivo fluorescence images were collected using the Xenogen IVIS™ 200 small animal imaging system. Fluorescence intensities were measured and normalized. […] Images were collected prior to peptide injection to assess baseline auto-fluorescence values and then at various time points post-injection up to 24 hours, FIG. 5A. Fluorescence images were excited at λex=675 nm, and emission was collected at λem=740 nm with 5 sec exposure (f/stop=8).

Data set [3] deals with Barrett's neoplasia (HGD and EAC). The data set is described as follows: Confocal microscopy of human esophageal specimens ex vivo. As for the experimental part: The fluorescence intensities from the human esophageal specimens were fit according to 4 histological classifications, including squamous (SQ), Barrett's esophagus (BE), high-grade dysplasia (HGD), and esophageal adenocarcinoma (EAC), and used a one-way ANOVA and used Tukey's multiple comparisons. Co-localization of peptide and antibody binding was evaluated using Pearson's correlation coefficient.
Using confocal microscopy, specific heterodimer binding to Barrett's neoplasia was validated on human specimens ex vivo. Formalin-fixed, paraffin-embedded (FFPE) specimens of human esophagus were obtained from the archived tissue bank in the Department of Pathology, University of Michigan. The tissues were cut into […], deparaffinized, and rehydrated using standard conditions. Two-step acidic and protease-based antigen retrieval was performed. The sections were blocked with protein serum for 10 min at RT followed by rinsing with PBS, and then incubated with the heterodimer (0.5 μM) for ten min in dark conditions at RT. The sections were then washed for three min 3× with PBS and further incubated sequentially with 1:200 dilution of EGFR monoclonal antibody (H11, #MA5-13070, Invitrogen) and 1:500 goat anti-mouse IgG (H+L) AF-568-labeled secondary antibody (#A-11004, Thermo Fisher Scientific), 1:500 dilution of ErbB2 primary antibody (#29D8, rabbit monoclonal antibody #2165S, Cell Signaling Inc), and 1:1000 goat anti-rabbit IgG (H+L) AF-488-labeled secondary antibody (#A11008, Life Technologies Corp). Each antibody was incubated for 1 hour at RT. Sections were washed with TBST 3× and mounted with Prolong Gold reagent containing DAPI (Invitrogen) using #1 cover glass ([…]). Confocal fluorescence microscopy was performed using DAPI, AF488, AF568 and Cy5.5 filter sets. Image quantification was performed by placing 3 boxes with dimensions of 20×20 μm^2 completely within cells found in the epithelium. Mean fluorescence intensities were measured using custom Matlab software (Mathworks). Regions of saturated intensities were avoided.

In another data set the test system is SKBr3 cells. The data set is described as follows: Heterodimer internalization in SKBr3 cells over time (confocal). In kind it is cell-based, human. The method, then:
Using confocal microscopy, images were collected over time to evaluate heterodimer internalization. […] Binding by anti-EGFR-AF568 (yellow) and anti-ErbB2-AF488 (green) to the surface (arrows) of the same cells is shown for comparison. On the merged images, a Pearson's correlation coefficient was measured for the heterodimer with the anti-EGFR antibody (ρ=0.77) and the anti-ErbB2 (ρ=0.65) antibody. […] The DAPI images highlight the location of cell nuclei prior to heterodimer incubation, FIG. 3B. Binding of QRH*-KSP*-E3-Cy5.5 (red) to the cell surface is seen at […]. The heterodimer starts to internalize at 4 min, and complete internalization is seen at 40 min.

“And” between values parts separate entries of the source, which are not always exact repeats. Equal values may be shown once. “Also recorded” adds a separate entry of the source.

On to “heterodimer of QRHKPRE (SEQ ID NO: 1) and KSPNPRF (SEQ ID NO: 2) with E3 (triethyleneglycol) linker, Cy5.5 label [QRH*-KSP*-E3-Cy5.5]”, for which the “binding to siCL (control) versus siEGFR (knockdown) SKBr3 cells” value in data set [1] (confocal microscopy, similar results for siErbB2) was “Less signal; also recorded: significantly greater binding”. Further, the “binding to surface of siCL (control) SKBr3 cells” value in data set [1] (non-targeting siRNA) was “strong binding”. Further, the “mean fluorescence intensity in EGFR or ErbB2 knockdown cells” value in data set [1] (quantified, versus control SKBr3 cells) is recorded as “significant reduction”. Moreover, the Hydrophilicity result in data set [2] is given as “good”. Besides, in the data set with OE33 xenograft tumors (about 2 hours after intravenous injection, n=6), the “peak mean tumor signal versus control peptide” value is on record as “significantly greater”. Besides, the “time of return of signal to baseline / systemic clearance” value with OE33 xenograft tumors (intravenous, OE33 xenograft) is “about 24 hours”. In data set [3] (human specimens ex vivo), the “staining of high-grade dysplasia (HGD) and esophageal adenocarcinoma (EAC)” value is reported as “increased signal; also recorded: increased staining intensity”; the “staining of squamous (SQ) and Barrett's esophagus (BE)” value was “Minimal fluorescence signal; also recorded: minimal staining”. For the same substance, the “mean fluorescence intensity of neoplasia compared with BE and SQ” value in data set [3] (n=31, 8, 23, and 12 specimens of SQ, BE, HGD, EAC) is listed as “significantly greater mean fluorescence intensity”. In addition, in the data set on SKBr3 cells, the “time at which heterodimer starts to internalize” value is 4 min and 8 to 20 min; the “time of complete internalization / strong signal inside cells” value was determined as 40 min.
